# Data from patent US8906909B2 (Curis, Inc., priority 2009, dated 2014).
# System: not given
# Test: not given
row,melting point,SMILES
1,125 to 127 °C,"O=C(CCCCN1CCN(Cc2cc3nc(-c4cccc5[nH]ncc45)nc(N4CCOCC4)c3s2)CC1)NO [Compound 11, 5-(4-((2-(1H-indazol-4-yl)-4-morpholinothieno[3,2-d]pyrimidin-6-yl)methyl)piperazin-1-yl)-N-hydroxypentanamide]"
2,247 °C (dec.),"COc1ccc(-c2nc(N3CCOCC3)c3sc(CN(C)c4ncc(C(=O)NO)cn4)cc3n2)cc1 [Compound 131, N-hydroxy-2-(((2-(4-methoxyphenyl)-4-morpholinothieno[3,2-d]pyrimidin-6-yl)methyl)(methyl)amino)pyrimidine-5-carboxamide]"

# System: HDACs (HeLa cell nuclear extracts)
# Test: HDAC enzymatic activity, Biomol Color de Lys system
# Format: biochemical
# Protocol: (e) An In Vitro Assay which Determines the Ability of a Test Compound to Inhibit HDAC Enzymatic Activity.
# HDAC inhibitory activity was assessed using the Biomol Color de Lys system (AK-500, Biomol, Plymouth Meeting, Pa.). Briefly, HeLa cell nuclear extracts were used as a source of HDACs. Different concentrations of test compounds were serially diluted in dimethylsulphoxide (DMSO) and added to HeLa cell nuclear extracts in the presence of a colorimetric artificial substrate. Final assay condition contained 50 mM Tris/Cl, pH 8.0, 137 mM NaCl, 2.7 mM KCl and 1 mM MgCl2. Reactions were carried in room temperature (25° C.) for 1 hour before addition of developer for termination. Relative enzyme activity was measured in the WALLAC Victor II 1420 microplate reader as floorescence intensity (excitation: 350-380 nm; emission: 440-460 nm). Data were analyzed using GraphPad Prism (v4.0a) with a sigmoidal dose response curve fitting for IC50 calculation.
row,SMILES,IC50
1,C/C(=N/O)c1cccc(-c2nc(N3CCOCC3)c3sc(CN(C)c4ncc(C(=O)NO)cn4)cc3n2)c1 [Compound 299],< 100 nM
2,CC(=O)c1cccc(-c2nc(N3CCOCC3)c3sc(CN(C)c4ncc(C(=O)NO)cn4)cc3n2)c1 [Compound 300],< 100 nM
3,Cc1ncc(-c2nc(N3CCOCC3)c3sc(CN(C)c4ncc(C(=O)NO)cn4)cc3n2)s1 [Compound 311],< 100 nM
4,CN(Cc1cc2nc(-c3cccc4[nH]c(=O)[nH]c34)nc(N3CCOCC3)c2s1)c1ncc(C(=O)NO)cn1 [Compound 314],< 100 nM
5,CN(Cc1cc2nc(-c3cccc4[nH]c(=S)[nH]c34)nc(N3CCOCC3)c2s1)c1ncc(C(=O)NO)cn1 [Compound 315],< 100 nM
6,CN(Cc1cc2nc(-c3cccc4[nH]c(=O)sc34)nc(N3CCOCC3)c2s1)c1ncc(C(=O)NO)cn1 [Compound 317],< 100 nM
7,CCCc1nc2cc(/C=C/C(=O)NO)ccc2n1CCNCc1cc2nc(-c3ccc(N)cc3)nc(N3CCOCC3)c2s1 [Compound 325],100 to 1000 nM
8,CNc1ccc(-c2nc(N3CCOCC3)c3sc(CNCc4nc5cc(/C=C/C(=O)NO)ccc5n4C)cc3n2)cn1 [Compound 328],100 to 1000 nM

# Now from value to compound:
row,IC50,SMILES
1,< 100 nM,CN(Cc1cc2nc(-c3cccc(S(=O)(=O)CCO)c3)nc(N3CCOCC3)c2s1)c1ncc(C(=O)NO)cn1 [Compound 291]
2,< 100 nM,C/C(=N/O)c1ccc(F)c(-c2nc(N3CCOCC3)c3sc(CN(C)c4ncc(C(=O)NO)cn4)cc3n2)c1 [Compound 298]
3,< 100 nM,CC(=O)c1ccc(F)c(-c2nc(N3CCOCC3)c3sc(CN(C)c4ncc(C(=O)NO)cn4)cc3n2)c1 [Compound 301]
4,< 100 nM,CN(Cc1cc2nc(-c3cccc(C(C)(C)O)c3)nc(N3CCOCC3)c2s1)c1ncc(C(=O)NO)cn1 [Compound 302]
5,100 to 1000 nM,Nc1ccc(-c2nc(N3CCOCC3)c3sc(S(=O)(=O)NCC4CCN(c5ncc(C(=O)NO)cn5)CC4)cc3n2)cc1 [Compound 309]
6,< 100 nM,Cc1ncc(-c2nc(N3CCOCC3)c3sc(CN(CCO)c4ncc(C(=O)NO)cn4)cc3n2)s1 [Compound 312]
7,< 100 nM,Cn1cc(-c2nc(N3CCOCC3)c3sc(CN(CCO)c4ncc(C(=O)NO)cn4)cc3n2)cn1 [Compound 313]
8,100 to 1000 nM,CCCc1nc2cc(/C=C/C(=O)NO)ccc2n1CCN(C)Cc1cc2nc(-c3ccc(NC)nc3)nc(N3CCOCC3)c2s1 [Compound 322]
9,100 to 1000 nM,CCCc1nc2cc(/C=C/C(=O)NO)ccc2n1CCNCc1cc2nc(-c3ccc(NC)nc3)nc(N3CCOCC3)c2s1 [Compound 323]
10,100 to 1000 nM,CCCc1nc2cc(/C=C/C(=O)NO)ccc2n1CCN(C)Cc1cc2nc(-c3ccc(N)cc3)nc(N3CCOCC3)c2s1 [Compound 324]
11,100 to 1000 nM,Cn1c(CNCc2cc3nc(-c4ccc(N)cc4)nc(N4CCOCC4)c3s2)nc2cc(/C=C/C(=O)NO)ccc21 [Compound 326]
12,100 to 1000 nM,CN(Cc1cc2nc(-c3ccc(N)cc3)nc(N3CCOCC3)c2s1)Cc1nc2cc(/C=C/C(=O)NO)ccc2n1C [Compound 327]
13,100 to 1000 nM,CNc1ccc(-c2nc(N3CCOCC3)c3sc(CN(C)Cc4nc5cc(/C=C/C(=O)NO)ccc5n4C)cc3n2)cn1 [Compound 329]
